Activity calls are given as the source filed them.
Experiments:
[1] = target: T1, Heat shock factor protein 1 (Mus musculus, UniProt P38532); assay: HSF1 potentiators in luciferase reporter cells, confirmation, cell-based, NIH3T3, luminescence, dose retest (AID 435004); format: functional;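 also: stress induced by proteasome inhibitor MG132 added 30 min after compound; luciferase reporter driven by HSF1 response element in NIH3T3 cells; actives raise luminescence as potentiators of the MG132 stress response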
T1 sequence (P38532 whole entry): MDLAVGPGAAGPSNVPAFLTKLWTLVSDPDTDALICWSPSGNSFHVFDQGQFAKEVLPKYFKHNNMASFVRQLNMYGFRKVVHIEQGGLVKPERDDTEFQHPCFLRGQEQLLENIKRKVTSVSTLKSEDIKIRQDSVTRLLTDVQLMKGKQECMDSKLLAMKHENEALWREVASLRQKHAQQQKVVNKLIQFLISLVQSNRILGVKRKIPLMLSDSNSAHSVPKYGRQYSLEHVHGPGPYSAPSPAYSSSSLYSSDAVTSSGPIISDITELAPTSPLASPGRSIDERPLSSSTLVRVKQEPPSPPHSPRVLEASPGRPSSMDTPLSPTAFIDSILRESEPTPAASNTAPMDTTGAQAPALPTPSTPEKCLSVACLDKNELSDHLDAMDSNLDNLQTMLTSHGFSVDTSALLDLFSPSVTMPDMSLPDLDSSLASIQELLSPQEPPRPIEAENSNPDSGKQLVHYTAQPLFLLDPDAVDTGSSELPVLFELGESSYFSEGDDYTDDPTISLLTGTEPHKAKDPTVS

[2] = target: T1, Heat shock factor protein 1; assay: inhibition of MG132-induced HSE-luciferase signal, confirmation, cell-based, NIH3T3, luminescence, dose retest (AID 2382); format: functional;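 also: NIH3T3 fibroblasts with HSF1-driven luciferase reporter stressed by proteasome inhibitor MG132; luminescence from HSF1-driven luciferase expression after 8 hours of MG132 stress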
[3] = system: INS1; assay: beta cell apoptosis inhibitors, cytokine rescue, dose response, luminescence, retest (AID 449756); format: functional, cell-based; details: Rattus norvegicus;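 also: cell death triggered by IL-1 beta plus TNF-alpha plus IFN-gamma mixture; protective hits raise ATP signal compared with cytokine alone wells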
[4] = target: Cytochrome P450 2D6 (Homo sapiens, UniProt P10635);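 also: CYP2D6 member of a cytochrome P450 panel assay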
Chain of Cytochrome P450 2D6 (P10635 whole entry): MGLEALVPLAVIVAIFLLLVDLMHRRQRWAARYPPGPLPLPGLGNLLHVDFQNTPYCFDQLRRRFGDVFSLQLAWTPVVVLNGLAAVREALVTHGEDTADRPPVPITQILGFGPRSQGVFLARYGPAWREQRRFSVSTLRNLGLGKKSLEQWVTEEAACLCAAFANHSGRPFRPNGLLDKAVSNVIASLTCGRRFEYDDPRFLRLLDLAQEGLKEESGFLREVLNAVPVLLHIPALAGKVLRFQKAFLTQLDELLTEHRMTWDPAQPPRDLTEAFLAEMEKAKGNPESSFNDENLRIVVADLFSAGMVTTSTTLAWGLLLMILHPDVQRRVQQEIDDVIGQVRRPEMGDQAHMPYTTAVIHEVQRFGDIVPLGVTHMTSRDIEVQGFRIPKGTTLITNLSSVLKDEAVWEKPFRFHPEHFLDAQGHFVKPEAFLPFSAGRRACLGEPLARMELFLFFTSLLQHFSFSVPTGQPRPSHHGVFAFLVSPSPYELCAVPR

[5] = target: Cytochrome P450 2C19 (Homo sapiens, UniProt P33261); assay: Cytochrome panel assay with activity outcomes. Panel member name: p450-cyp2c19 Compounds with AC50 equal or less than 10 uM are considered active; format: functional; details: read-out: AC50
Chain of Cytochrome P450 2C19 (P33261 whole entry): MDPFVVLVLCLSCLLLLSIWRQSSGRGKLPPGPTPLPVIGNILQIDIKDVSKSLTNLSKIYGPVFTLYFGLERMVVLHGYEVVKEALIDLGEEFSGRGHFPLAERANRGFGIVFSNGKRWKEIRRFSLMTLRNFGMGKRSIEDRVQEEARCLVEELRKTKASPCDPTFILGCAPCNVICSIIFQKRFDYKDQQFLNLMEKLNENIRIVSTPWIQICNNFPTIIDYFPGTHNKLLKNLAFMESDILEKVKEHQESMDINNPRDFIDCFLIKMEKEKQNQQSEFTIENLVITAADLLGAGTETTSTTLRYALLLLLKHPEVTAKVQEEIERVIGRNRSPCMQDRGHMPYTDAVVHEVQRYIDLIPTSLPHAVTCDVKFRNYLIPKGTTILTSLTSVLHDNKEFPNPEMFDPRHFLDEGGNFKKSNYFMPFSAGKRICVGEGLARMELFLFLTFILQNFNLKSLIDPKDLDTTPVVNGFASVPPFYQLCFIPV

[6] = target: T2, Replicative DNA helicase DnaB (Mycobacterium tuberculosis, UniProt P9WMR3); assay: DnaB intein splicing inhibitors, dose response, biochemical, cell-free fluorescence (AID 449749); format: functional
T2 sequence (P9WMR3 whole entry): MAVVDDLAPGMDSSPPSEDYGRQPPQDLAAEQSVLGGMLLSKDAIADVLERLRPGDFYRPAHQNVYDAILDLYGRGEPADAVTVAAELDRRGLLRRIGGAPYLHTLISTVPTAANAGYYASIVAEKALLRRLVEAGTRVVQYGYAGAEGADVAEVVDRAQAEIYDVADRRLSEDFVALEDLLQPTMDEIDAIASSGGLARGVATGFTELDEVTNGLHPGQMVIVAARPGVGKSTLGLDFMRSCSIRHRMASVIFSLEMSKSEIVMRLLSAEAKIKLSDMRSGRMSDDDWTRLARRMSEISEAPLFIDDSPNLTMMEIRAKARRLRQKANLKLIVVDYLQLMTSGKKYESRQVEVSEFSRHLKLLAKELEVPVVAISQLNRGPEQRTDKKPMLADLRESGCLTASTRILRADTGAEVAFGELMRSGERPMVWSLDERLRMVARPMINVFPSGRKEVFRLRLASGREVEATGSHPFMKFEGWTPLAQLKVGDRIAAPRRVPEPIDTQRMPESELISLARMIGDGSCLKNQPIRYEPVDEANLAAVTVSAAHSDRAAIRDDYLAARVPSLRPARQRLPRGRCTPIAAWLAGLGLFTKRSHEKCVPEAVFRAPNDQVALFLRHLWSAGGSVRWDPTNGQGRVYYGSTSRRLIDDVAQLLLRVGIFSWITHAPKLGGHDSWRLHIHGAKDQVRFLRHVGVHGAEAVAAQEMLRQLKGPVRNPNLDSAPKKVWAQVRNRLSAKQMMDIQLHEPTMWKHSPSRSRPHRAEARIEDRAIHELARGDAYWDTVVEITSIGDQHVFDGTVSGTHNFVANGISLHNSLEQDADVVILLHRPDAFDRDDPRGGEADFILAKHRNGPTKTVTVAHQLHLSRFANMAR

[7] = target: T3, Protein RecA (Mycobacterium tuberculosis, UniProt P9WHJ3); assay: Fluorescence Cell-Free Homogeneous Dose Retest to Identify Inhibitors of RecA-Intein Splicing Activity. [Related pubchem assays (depositor defined):AID2097, AID2223, AID489010, AID492950]; format: functional
T3 sequence (P9WHJ3 whole entry): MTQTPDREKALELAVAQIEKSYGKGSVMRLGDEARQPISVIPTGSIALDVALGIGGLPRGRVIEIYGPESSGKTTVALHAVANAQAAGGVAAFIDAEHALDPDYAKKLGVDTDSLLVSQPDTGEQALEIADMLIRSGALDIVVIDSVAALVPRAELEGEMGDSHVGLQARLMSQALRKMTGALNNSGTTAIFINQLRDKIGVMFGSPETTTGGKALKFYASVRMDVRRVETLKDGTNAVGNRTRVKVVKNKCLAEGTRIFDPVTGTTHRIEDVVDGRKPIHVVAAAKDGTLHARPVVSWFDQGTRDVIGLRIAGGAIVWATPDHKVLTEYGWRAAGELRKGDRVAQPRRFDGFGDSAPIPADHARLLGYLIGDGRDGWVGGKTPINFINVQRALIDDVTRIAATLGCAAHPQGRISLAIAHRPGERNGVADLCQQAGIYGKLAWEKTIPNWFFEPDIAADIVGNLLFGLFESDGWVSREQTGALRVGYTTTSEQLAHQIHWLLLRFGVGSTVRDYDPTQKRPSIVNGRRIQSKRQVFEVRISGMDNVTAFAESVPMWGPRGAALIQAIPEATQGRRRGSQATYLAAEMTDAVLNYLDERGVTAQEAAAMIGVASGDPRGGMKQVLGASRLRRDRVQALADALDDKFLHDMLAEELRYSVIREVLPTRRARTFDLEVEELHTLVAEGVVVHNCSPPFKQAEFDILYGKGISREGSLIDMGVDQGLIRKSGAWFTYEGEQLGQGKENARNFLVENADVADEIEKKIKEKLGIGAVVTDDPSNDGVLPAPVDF

[8] = inhibitors of intracellular T. cruzi replication, confirmation, NIH3T3 host cells, beta-gal luminescence (AID 2044); format: functional, cell-based;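 also: intracellular parasites grown in NIH/3T3 mouse fibroblasts as host cells; luminescent beta-galactosidase reporter signal from transgenic T. cruzi replicating inside host cells; inhibitors lower the luminescence signal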
[9] = cytotoxicity toward NIH3T3 fibroblasts, dose response, counter-screen, cell-based, ATP luminescence, mouse fibroblasts (AID 2010); format: functional;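 also: cells exposed to compound for about 90 hours before reading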
[10] = Luminescence Cell-Based Dose Response HTS to Identify Inhibitors of 5'UTR Stem-Loop Driven Prion Protein mRNA Translation in H4 Neuroglioblastoma Cells. [Related pubchem assays: 1827 (Project Summary), 1813 (Primary HTS)]; format: functional
[11] = inhibitors of SNCA 5'UTR-driven reporter translation, confirmation, H4 neuroglioma cells, luminescence (AID 1988); format: functional, cell-based
[12] = target: Cytochrome P450 3A4 (Homo sapiens, UniProt P08684);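 also: CYP3A4 tested as one member of a cytochrome P450 panel screen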
Chain of Cytochrome P450 3A4 (P08684 whole entry): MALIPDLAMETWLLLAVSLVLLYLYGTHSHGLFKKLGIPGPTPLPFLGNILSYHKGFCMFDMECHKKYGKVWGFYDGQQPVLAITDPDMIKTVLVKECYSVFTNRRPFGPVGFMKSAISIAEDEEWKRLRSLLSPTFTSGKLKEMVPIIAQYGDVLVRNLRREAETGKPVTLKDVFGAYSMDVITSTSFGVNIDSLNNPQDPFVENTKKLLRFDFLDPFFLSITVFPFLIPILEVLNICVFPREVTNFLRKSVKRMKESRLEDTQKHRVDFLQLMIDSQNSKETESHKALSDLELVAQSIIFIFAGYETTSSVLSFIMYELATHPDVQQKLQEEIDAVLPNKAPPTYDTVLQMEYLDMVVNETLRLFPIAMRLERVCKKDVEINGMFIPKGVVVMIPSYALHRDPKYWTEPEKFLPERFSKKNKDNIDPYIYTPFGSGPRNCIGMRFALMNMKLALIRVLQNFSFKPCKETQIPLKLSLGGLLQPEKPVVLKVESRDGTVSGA

[13] = target: Cytochrome P450 2C9 (Homo sapiens, UniProt P11712)
Chain of Cytochrome P450 2C9 (P11712 whole entry): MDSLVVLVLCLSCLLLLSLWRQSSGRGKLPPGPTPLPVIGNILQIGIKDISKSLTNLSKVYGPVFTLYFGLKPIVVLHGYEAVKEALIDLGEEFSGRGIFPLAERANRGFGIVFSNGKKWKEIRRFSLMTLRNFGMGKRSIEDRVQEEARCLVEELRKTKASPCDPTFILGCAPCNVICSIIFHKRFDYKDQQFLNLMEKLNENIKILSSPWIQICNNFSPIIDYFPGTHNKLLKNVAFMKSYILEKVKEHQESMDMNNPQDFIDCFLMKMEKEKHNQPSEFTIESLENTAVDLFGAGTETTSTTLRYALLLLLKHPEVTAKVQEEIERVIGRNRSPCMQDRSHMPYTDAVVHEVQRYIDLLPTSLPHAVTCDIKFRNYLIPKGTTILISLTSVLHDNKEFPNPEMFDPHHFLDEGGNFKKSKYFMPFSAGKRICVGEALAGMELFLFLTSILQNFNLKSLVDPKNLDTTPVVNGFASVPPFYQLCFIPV

CC1CC(C)CN(C(=O)CCS(=O)(=O)c2ccc3c(c2)NC(=O)CS3)C1 (stereo not drawn)
EC50 [1]: > 260 µM (inactive)

O=C(NC1CCSc2ccccc21)c1ccccc1Cl (stereo not drawn)
EC50 [1]: > 260 µM (inactive)

CCOC(=O)c1cc2occc2n1CC(=O)N1CCCc2ccccc21
EC50 [2]: > 195 µM (not active)

C[C@H](CO)N1C[C@H](C)[C@@H](CN(C)C(=O)NC2CCCCC2)Oc2c(NC(=O)Nc3ccc(C(F)(F)F)cc3)cccc2C1=O
AC50 [3]: 27.7 µM (active)

O=C(Nc1nncs1)c1ccc(F)c(S(=O)(=O)N2CCCCC2)c1
EC50 [2]: 39.5 µM (active)

Cc1ccc(N2C(=O)C(Cl)=C(NCc3ccccc3)C2=O)c(C)c1
AC50 [4]: 22.4 µM (inconclusive)

CSc1c(-c2ccccc2)nc2ccccc2c1C(=O)O
AC50 [5]: 10 µM (inconclusive)
AC50 [4]: 3.16 µM (inconclusive)

Cc1ccc2nc(N3CCN(Cc4nnnn4Cc4ccccc4)CC3)c(C#N)cc2c1
EC50 [2]: > 195 µM (not active)

O=C(Nc1ccccc1)N1CCCN(c2ccc(C(F)(F)F)cc2[N+](=O)[O-])CC1
EC50 [1]: > 260 µM (inactive)

CS(=O)(=O)C1=NN2C(=N)/C(=C\c3ccc(OC(=O)c4ccco4)cc3)C(=O)N=C2S1
AC50 [6]: > 380 µM (inactive)
EC50 [7]: 16.8 µM (active)

O=C(NC(Nc1cc(C(F)(F)F)ccc1Cl)C(=O)c1ccccc1)c1ccccc1 (stereo not drawn)
EC50 [8]: 2.17 µM (active)
EC50 [9]: > 30 µM (not active)

FC(F)(F)c1ccccc1-c1cc(NCc2cccnc2)ncn1
AC50 [4]: 25.1 µM (inconclusive)

COc1ccc(C(=O)ON=C(N)c2ccccc2)c(OC)c1
EC50 [10]: > 120 µM (not active)
EC50 [11]: 5.93 µM (active)

Nc1nnc(CSCc2ccccc2Cl)s1
EC50 [1]: > 260 µM (inactive)

O=C(N/N=C/c1cccnc1)c1ccccc1NS(=O)(=O)c1cccs1
AC50 [3]: > 260 µM (inactive)

CN(C)CCCn1c(N)c(C#N)c2nc(C#N)c(C#N)nc21
EC50 [1]: 58.3 µM (active)

CC(C)(CC(=O)N1CCN(c2ccc(Cl)cc2)CC1)CC1=NS(=O)(=O)c2ccccc2N1
AC50 [4]: 3.16 µM (inconclusive)

O=C(N/N=C/c1ccc(-c2cccc([N+](=O)[O-])c2)o1)c1cccs1
EC50 [8]: 0.634 µM (active)
EC50 [9]: > 60 µM (not active)

NCCCc1ccc2oc3ccccc3c2c1
AC50 [5]: 7.94 µM (inconclusive)
AC50 [4]: 2.51 µM (inconclusive)

CN1CCN(C(=O)/C(=C/c2cccnc2)NC(=O)c2cccc(Br)c2)CC1
EC50 [1]: > 260 µM (inactive)

c1ccc2c(c1)ncn2-c1ncnc2sc3c(c12)CCCC3
AC50 [4]: 0.00501 µM (inconclusive)
AC50 [12]: 14.1 µM (inconclusive)
AC50 [13]: 20 µM (inconclusive)

COc1ccccc1NC(=O)CN1CCN(CC(=O)Nc2ccccc2Cl)CC1
EC50 [1]: > 260 µM (inactive)

Cc1nnc2nc(SCC(=O)NCC3CCCO3)n(-c3ccc(Br)cc3)c(N)c1-2 (stereo not drawn)
AC50 [4]: 10 µM (inconclusive)
AC50 [13]: 14.1 µM (inconclusive)

CCc1ccc(-c2cc(C(F)(F)F)n3nc(C(=O)Nc4cnn(Cc5ccc(C)cc5)c4)cc3n2)s1
AC50 [3]: 3.63 µM (active)

Cc1ccc(S(=O)(=O)c2cc(C#N)c(O)nc2N)cc1
AC50 [4]: 39.8 µM (inconclusive)
AC50 [12]: 25.1 µM (inconclusive)

O=C(CCNc1ccc(F)cc1)c1cc2ccccc2o1
EC50 [8]: 1.12 µM (active)
EC50 [9]: > 60 µM (not active)

CCOC(=O)c1cnc2ccc(C)cc2c1Sc1ccc(F)cc1
EC50 [1]: 11.2 µM (active)
AC50 [6]: 5.76 µM (active)
EC50 [7]: 2.95 µM (active)

Cc1ccccc1OCCNC(=O)c1ccccc1Sc1ccccc1C#N
AC50 [4]: 25.1 µM (inconclusive)
AC50 [13]: 28.2 µM (inconclusive)

O=C(NCc1cccnc1)c1cc(-c2ccco2)on1
AC50 [3]: 1.62 µM (active)

CCOc1ccc(NC(=S)N(Cc2ccc(Cl)cc2)Cc2ccco2)cc1
EC50 [1]: > 260 µM (inactive)

CCc1cc2c3c(c1)C1(C(=O)N3C(C)(C)C=C2C)C(C#N)=C(N)Oc2nc(O)nc(O)c21 (stereo not drawn)
AC50 [6]: 11 µM (active)
EC50 [7]: 2.65 µM (active)

CCOc1cc(C2C(C#N)=C(N)Oc3[nH]nc(C)c32)ccc1OCCN1CCOCC1 (stereo not drawn)
AC50 [6]: 50.6 µM (active)
EC50 [7]: 4.45 µM (active)

O=C(NC1CCCC1)c1ccc([N+](=O)[O-])s1
EC50 [8]: 0.546 µM (active)
EC50 [9]: 5.25 µM (active)

O=C1NC(=S)S/C1=C\c1nc2ccccc2[nH]1
AC50 [6]: > 380 µM (inactive)
EC50 [7]: > 120 µM (inactive)

Cc1cccc(C(C)C)c1NC(=O)COC(=O)c1cccc(S(=O)(=O)N2CCc3ccccc3C2)c1
EC50 [1]: > 260 µM (inactive)

COc1ccc(C(=O)N2CCC3(CCCN(Cc4ccccc4OC)C3)CC2)cc1
AC50 [4]: 12.6 µM (inconclusive)
AC50 [12]: 15.8 µM (inconclusive)

Cn1cc(C=O)c(-c2ccc3c(c2)OCCCO3)n1
EC50 [1]: > 260 µM (inactive)

COCCNc1nc(-c2ccccc2OC)nc2ccccc12
AC50 [4]: 25.1 µM (inconclusive)
AC50 [12]: 20 µM (inconclusive)

CCCCCC1=C2CNC(CCC)(C(=O)OC)C=C2C(C)C1=O (stereo not drawn)
AC50 [4]: 12.6 µM (inconclusive)

CCN1C(=O)CC(N2CCN(c3ccc(C(=O)c4ccccc4)cc3)CC2)C1=O (stereo not drawn)
EC50 [1]: > 260 µM (inactive)

O=C(NC1CCCC1)C(c1ccc(F)cc1)N(Cc1ccc(F)cc1)C(=O)c1cc[nH]n1 (stereo not drawn)
AC50 [4]: 25.1 µM (inconclusive)
AC50 [13]: 39.8 µM (inconclusive)

CCOC(=O)c1c(N=C(S)N2CCOCC2)sc2c1CCN(C(=O)OCC)C2
AC50 [6]: 5.25 µM (active)
EC50 [7]: 20.1 µM (active)

Oc1ccc(/C(Cc2ccc3ccccc3n2)=N\Nc2ccccc2)c(O)c1
AC50 [6]: 78.3 µM (active)
EC50 [7]: 13.6 µM (active)

COc1cccc(N/C([S-])=C(/C(=O)c2ccc(C)c([N+](=O)[O-])c2)[n+]2ccccc2)c1
AC50 [6]: 13.3 µM (active)
EC50 [7]: 9.74 µM (active)

— ChEMBL document CHEMBL1201862, “PubChem BioAssay data set” (2004)
